From US9732032B2, “3-aminocyclopentane carboxamide derivatives” (Merck Patent GmbH, priority 2012, dated 2017)

biological target: T1, human recombinant full-length fatty acid synthase (FASN) (Homo sapiens, UniProt P49327); test: Biochemical activity testing of human fatty acid synthase FASN (NADPH fluorescence intensity assay); conditions: NADPH fluorescence decrease (ex 340 nm / em 460 nm), 30 minutes at room temperature, read-out: IC50 FASN (enzyme assay)
T1 construct: human recombinant full-length fatty acid synthase; made in house; host or cells: SF9 cells
T1 sequence (P49327 whole entry): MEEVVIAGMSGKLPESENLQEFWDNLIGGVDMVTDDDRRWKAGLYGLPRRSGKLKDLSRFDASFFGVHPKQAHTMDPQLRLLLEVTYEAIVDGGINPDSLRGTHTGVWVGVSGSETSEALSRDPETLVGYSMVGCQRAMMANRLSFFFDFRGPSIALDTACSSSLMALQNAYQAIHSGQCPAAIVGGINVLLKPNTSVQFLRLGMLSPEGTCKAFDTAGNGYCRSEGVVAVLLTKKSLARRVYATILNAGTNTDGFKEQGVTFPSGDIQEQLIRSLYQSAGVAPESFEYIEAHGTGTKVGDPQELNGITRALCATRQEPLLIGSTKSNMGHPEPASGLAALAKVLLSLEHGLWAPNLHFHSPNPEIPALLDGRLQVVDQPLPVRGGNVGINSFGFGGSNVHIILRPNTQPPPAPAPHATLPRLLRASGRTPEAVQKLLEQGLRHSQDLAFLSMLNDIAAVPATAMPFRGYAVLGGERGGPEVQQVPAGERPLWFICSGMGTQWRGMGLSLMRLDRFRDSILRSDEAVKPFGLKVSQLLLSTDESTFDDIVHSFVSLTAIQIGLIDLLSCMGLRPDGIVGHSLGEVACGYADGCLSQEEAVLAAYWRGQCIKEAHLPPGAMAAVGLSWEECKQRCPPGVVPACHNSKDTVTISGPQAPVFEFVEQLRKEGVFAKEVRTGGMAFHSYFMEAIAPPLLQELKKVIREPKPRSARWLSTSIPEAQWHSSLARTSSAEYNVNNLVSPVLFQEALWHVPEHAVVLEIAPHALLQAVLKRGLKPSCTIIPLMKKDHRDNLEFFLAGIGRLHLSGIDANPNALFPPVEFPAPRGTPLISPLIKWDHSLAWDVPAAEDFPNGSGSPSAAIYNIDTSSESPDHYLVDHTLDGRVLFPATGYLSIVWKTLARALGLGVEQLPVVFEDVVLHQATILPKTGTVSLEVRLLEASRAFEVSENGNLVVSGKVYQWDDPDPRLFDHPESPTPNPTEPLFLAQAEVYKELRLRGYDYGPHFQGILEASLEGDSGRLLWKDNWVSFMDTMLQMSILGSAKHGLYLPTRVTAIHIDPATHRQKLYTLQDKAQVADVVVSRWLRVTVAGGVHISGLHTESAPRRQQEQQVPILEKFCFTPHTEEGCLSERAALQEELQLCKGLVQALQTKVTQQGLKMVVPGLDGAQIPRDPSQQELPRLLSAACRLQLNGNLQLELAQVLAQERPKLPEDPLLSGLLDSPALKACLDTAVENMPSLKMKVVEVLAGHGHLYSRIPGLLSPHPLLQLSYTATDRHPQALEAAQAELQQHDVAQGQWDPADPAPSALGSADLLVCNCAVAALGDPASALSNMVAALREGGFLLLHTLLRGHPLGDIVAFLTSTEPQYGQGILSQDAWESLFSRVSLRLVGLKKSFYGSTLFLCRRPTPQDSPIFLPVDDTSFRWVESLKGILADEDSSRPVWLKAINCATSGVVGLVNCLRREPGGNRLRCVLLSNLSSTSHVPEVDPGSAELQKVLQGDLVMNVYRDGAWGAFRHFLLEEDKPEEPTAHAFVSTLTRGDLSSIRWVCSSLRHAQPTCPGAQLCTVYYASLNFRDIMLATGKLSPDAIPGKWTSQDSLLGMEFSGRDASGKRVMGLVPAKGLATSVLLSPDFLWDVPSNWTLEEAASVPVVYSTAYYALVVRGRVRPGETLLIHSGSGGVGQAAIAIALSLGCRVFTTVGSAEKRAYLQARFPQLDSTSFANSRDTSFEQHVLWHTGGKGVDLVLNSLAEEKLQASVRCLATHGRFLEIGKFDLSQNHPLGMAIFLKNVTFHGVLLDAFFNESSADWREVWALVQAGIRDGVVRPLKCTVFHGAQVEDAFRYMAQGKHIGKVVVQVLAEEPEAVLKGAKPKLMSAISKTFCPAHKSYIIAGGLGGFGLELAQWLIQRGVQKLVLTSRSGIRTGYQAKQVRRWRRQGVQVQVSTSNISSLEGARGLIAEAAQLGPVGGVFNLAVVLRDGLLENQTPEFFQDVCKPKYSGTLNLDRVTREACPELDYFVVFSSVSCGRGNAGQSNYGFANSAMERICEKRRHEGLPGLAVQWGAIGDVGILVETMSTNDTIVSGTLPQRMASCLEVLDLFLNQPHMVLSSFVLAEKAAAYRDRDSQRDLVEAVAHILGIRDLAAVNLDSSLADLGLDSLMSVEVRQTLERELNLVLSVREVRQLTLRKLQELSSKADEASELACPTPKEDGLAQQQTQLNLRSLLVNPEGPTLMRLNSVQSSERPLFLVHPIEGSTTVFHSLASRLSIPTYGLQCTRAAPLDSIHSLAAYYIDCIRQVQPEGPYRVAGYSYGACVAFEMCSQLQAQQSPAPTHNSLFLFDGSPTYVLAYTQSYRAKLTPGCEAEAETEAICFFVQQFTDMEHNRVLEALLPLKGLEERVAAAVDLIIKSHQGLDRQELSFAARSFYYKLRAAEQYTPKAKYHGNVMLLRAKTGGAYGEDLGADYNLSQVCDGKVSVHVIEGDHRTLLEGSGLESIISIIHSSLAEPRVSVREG
Excerpt: aq (aqueous), h (hour), g (gram), L (liter), mg (milligram), MHz (Megahertz), (melting point), eq (equivalent), mL (milliliter), L (microliter), ACN (acetonitrile), AcOH (acetic acid), CDCl3 (deuterated chloroform), CD3OD (deuterated methanol), CH3CN (acetonitrile), c-hex (cyclohexane), DCC (dicyclohexyl carbodiimide), DCM (dichloromethane), DIC (diisopropyl carbodiimide), DIEA (diisopropylethyl-amine), DMF (dimethylformamide), DMSO (dimethylsulfoxide), DMSO-d6 (deuterated dimethylsulfoxide), EDC (1-(3-dimethyl-amino-propyl)-3-ethylcarbodiimide), ESI (Electro-spray ionization), EtOAc (ethyl acetate), Et2O (diethyl ether), EtOH (ethanol), HATU (dimethylamino-([1,2,3]triazolo[4,5-b]pyridin-3-yloxy)-methylene]-dimethylammonium hexafluorophosphate), HPLC (High Performance Liquid Chromatography), i-PrOH (2-propanol), K2CO3 (potassium carbonate), LC (Liquid Chromatography), MeOH (methanol), MgSO4 (magnesium sulfate), MS (mass spectrometry), MTBE (Methyl tert-butyl ether), NaHCO3 (sodium bicarbonate), NaBH4 (sodium borohydride), NMM (N-methyl morpholine), NMR (Nuclear Magnetic Resonance), PyBOP (benzotriazole-1-yl-oxy-trispyrrolidino-phosphonium hexafluorophosphate), RT (room temperature), Rt (retention time), SPE (solid phase extraction), TBTU (2-(1-H-benzotriazole-1-yl)-1,1,3,3-tetramethyluromium tetrafluoro borate), TEA (triethylamine), TFA (trifluoroacetic acid), THF (tetrahydrofuran), TLC (Thin Layer Chromatography), UV (Ultraviolet). Description of the In Vitro Assays Abbreviations: GST=Glutathione-S-transferase FRET=Fluorescence resonance energy transfer HTRF®=(homogenous time resolved fluorescence) HEPES=4-(2-hydroxyethyl)-1-piperazine ethanesulfonic acid buffer DTT=Dithiothreitol BSA=bovine serum albumin CHAPS=detergent; CHAPS=3[(3-cholamidopropyl)dimethylammonio]-1-propanesulfonate Biochemical Activity Testing of Human Fatty Acid Synthase FASN
Fatty acid synthase FASN is a multifunctional enzyme with seven catalytic activities thereby synthesising long chain fatty acids especially palmitoyl-CoA in the presence of co-factor NADPH starting from the substrates acetyl-CoA and malonyl-CoA. The reductive synthesis is realized by the oxidation of NADPH to NADP. Since NADPH has a high fluorescence intensity quantum yield compared to NADP with excitation at 340 nm and emission at 460 nm, the reaction can be monitored via the decrease in fluorescence intensity. The biochemical FASN activity testing was performed as 384 well two-time-point kinetic fluorescence intensity assay format in Greiner low volume medium binding 384-well black microtiter plates in a total assay volume of 8 μl and was used for high throughput screen. In each well 3 μl 40 nM human recombinant full-length fatty acid synthase (produced in-house in SF9 cells) were dispensed in the following assay buffer: 50 mM potassium phosphate buffer pH 7.0, 0.005% (w/v) BSA, 2 mM Glutathione, 0.02% Tween-20. Then 2 μl of 200 μM NADPH in assay buffer were added, followed by the addition of the test compounds in 10 dilution concentrations starting with 30 μM (final concentration) to get a final DMSO content of 1% (v/v). The mixture was incubated for at least 15 min at room temperature. After the pre-incubation the enzymatic reaction was started by the addition of 2 μl substrate solution (80 μM acetyl-CoA, 240 μM malonyl-CoA). A first fluorescence intensity measurement (time point one) was performed with an Envision multimode reader (Perkin Elmer LAS Germany GmbH) at excitation wavelength 340 nm (lamp mode) and emission wavelength 460 nm. The reaction was incubated for 30 minutes at room temperature. After this the fluorescence intensity was measured again in the Envision using the same parameters as described above (second time point measurement). The data were analysed by subtracting the first time point measurement value from the second time point measurement value (after the enzymatic reaction). The differences of the emission signals were determined. […]

CCNC(=O)[C@H]1CC[C@@H](N(C)C(=O)c2ccc(-c3ccc(F)cc3F)cc2)C1 [Compound A63, 2′,4′-difluoro-biphenyl-4-carboxylic acid ((1R,3S)-3-ethylcarbamoyl-cyclopentyl)-methyl-amide] and CCNC(=O)[C@H]1CC[C@@H](N(C)C(=O)c2ccc(-c3ccccc3C(F)(F)F)cc2)C1 [Compound A64, 2′-trifluoromethyl-biphenyl-4-carboxylic acid ((1R,3S)-3-ethylcarbamoyl-cyclopentyl)-methyl-amide] cannot be ordered by IC50: under 300 nM for the first, under 300 nM for the second.

First: CCNC(=O)[C@H]1CC[C@@H](N(C)C(=O)c2ccc(-c3ccccc3C)c(C)c2)C1 [Compound A65, 2,2′-dimethyl-biphenyl-4-carboxylic acid ((1R,3S)-3-ethylcarbamoyl-cyclopentyl)-methyl-amide]
Second: CCNC(=O)[C@H]1CC[C@@H](N(C)C(=O)c2ccc(-c3noc(C)n3)cc2)C1 [Compound A88, N-((1R,3S)-3-ethylcarbamoyl-cyclopentyl)-N-methyl-4-(5-methyl-[1,2,4]oxadiazol-3-yl)-benzamide]
The IC50 of the first is lower: under 300 nM for the first, 3000 to 50000 nM for the second.

CN(C(=O)c1ccc(-c2ccccc2)cc1)[C@@H]1CC[C@H](C(=O)NC2(C)CC2)C1 [Compound A67, biphenyl-4-carboxylic acid methyl-[(1R,3S)-3-(1-methyl-cyclopropylcarbamoyl)-cyclopentyl]-amide] and CN(C(=O)c1ccc(-c2ccncc2)cc1)[C@@H]1CC[C@H](C(=O)NC2(C)CC2)C1 [Compound A80, N-methyl-N-[(1R,3S)-3-[(1-methylcyclopropyl)carbamoyl]cyclopentyl]-4-(4-pyridyl)benzamide] cannot be ordered by IC50: under 300 nM for the first, under 300 nM for the second.

CN(C(=O)c1ccc(-c2nc3ccccc3o2)cc1)[C@@H]1CC[C@H](C(=O)NC2(C)CC2)C1 [Compound A68, 4-benzoxazol-2-yl-N-methyl-N-[(1R,3S)-3-(1-methyl-cyclopropylcarbamoyl)-cyclopentyl]-benzamide] and CN(C(=O)c1ccc(-c2nc3ccccc3o2)cc1)[C@@H]1CC[C@H](C(=O)NC2(C)CCC2)C1 [Compound A84, 4-benzoxazol-2-yl-N-methyl-N-[(1R,3S)-3-(1-methyl-cyclobutylcarbamoyl)-cyclopentyl]-benzamide] cannot be ordered by IC50: under 300 nM for the first, under 300 nM for the second.

CCNC(=O)[C@H]1CC[C@@H](N(C)C(=O)c2ccc(C#Cc3ccc(OC)cc3)cc2)C1 [Compound A69, N-((1R,3S)-3-ethylcarbamoyl-cyclopentyl)-4-(4-methoxy-phenylethynyl)-N-methyl-benzamide] and CCNC(=O)[C@H]1CC[C@@H](N(C)C(=O)c2ccc(C#Cc3ccncc3)cc2)C1 [Compound A70, N-((1R,3S)-3-ethylcarbamoyl-cyclopentyl)-N-methyl-4-pyridin-4-ylethynyl-benzamide] cannot be ordered by IC50: under 300 nM for the first, under 300 nM for the second.

CN(C(=O)c1ccc(-c2nc3ccccc3s2)cc1)[C@@H]1CC[C@H](C(=O)NC2(C)CC2)C1 [Compound A71, 4-benzothiazol-2-yl-N-methyl-N-[(1R,3S)-3-(1-methyl-cyclopropylcarbamoyl)-cyclopentyl]-benzamide] and CN(C(=O)c1ccc(-c2cccnc2)cc1)[C@@H]1CC[C@H](C(=O)NC2(C)CC2)C1 [Compound A83, N-methyl-N-[(1R,3S)-3-(1-methyl-cyclopropylcarbamoyl)-cyclopentyl]-4-pyridin-3-yl-benzamide] cannot be ordered by IC50: under 300 nM for the first, under 300 nM for the second.

CN(C(=O)c1ccc(C#Cc2ccc(F)cc2)cc1)[C@@H]1CC[C@H](C(=O)NC2(C)CC2)C1 [Compound A72, 4-(4-fluoro-phenylethynyl)-N-methyl-N-[(1R,3S)-3-(1-methyl-cyclopropylcarbamoyl)-cyclopentyl]-benzamide] and CN(C(=O)c1ccc(-c2ccc(C#N)cc2)cc1)[C@@H]1CC[C@H](C(=O)NC2(C)CC2)C1 [Compound A81, 4-(4-cyanophenyl)-N-methyl-N-[(1R,3S)-3-[(1-methylcyclopropyl)-carbamoyl]cyclopentyl]benzamide] cannot be ordered by IC50: under 300 nM for the first, under 300 nM for the second.

Compared with CCCC1(NC(=O)[C@H]2CC[C@@H](N(C)C(=O)c3ccc(-c4nc5ccccc5o4)cc3)C2)CC1 [Compound A73, 4-benzoxazol-2-yl-N-methyl-N-[(1R,3S)-3-(1-propyl-cyclopropylcarbamoyl)-cyclopentyl]-benzamide], CC[C@H](C)NC(=O)[C@H]1CC[C@@H](N(C)C(=O)c2ccc(-c3nc4ccccc4o3)cc2)C1 [Compound A74, 4-(1,3-benzoxazol-2-yl)-N-methyl-N-[(1R,3S)-3-[[(1S)-1-methylpropyl]-carbamoyl]cyclopentyl]benzamide] is lower in IC50: 300 to 3000 nM for the first, under 300 nM for the second. The second is the more potent here.

Compared with CC[C@@H](C)NC(=O)[C@H]1CC[C@@H](N(C)C(=O)c2ccc(-c3nc4ccccc4o3)cc2)C1 [Compound A75, 4-(1,3-benzoxazol-2-yl)-N-methyl-N-[(1R,3S)-3-[[(1R)-1-methylpropyl]-carbamoyl]cyclopentyl]benzamide], C[C@@H](CO)NC(=O)[C@H]1CC[C@@H](N(C)C(=O)c2ccc(-c3nc4ccccc4o3)cc2)C1 [Compound A90, 4-benzoxazol-2-yl-N-[(1R,3S)-3-((S)-2-hydroxy-1-methyl-ethylcarbamoyl)-cyclopentyl]-N-methyl-benzamide] is higher in IC50: under 300 nM for the first, 300 to 3000 nM for the second.

CN(C(=O)c1ccc(-c2nc3ccccc3o2)cc1)[C@@H]1CC[C@H](C(=O)NC2CCC2)C1 [Compound A76, 4-(1,3-benzoxazol-2-yl)-N-[(1R,3S)-3-(cyclobutylcarbamoyl)cyclopentyl]-N-methyl-benzamide] and CN(C(=O)c1ccc(-c2nc3ccccc3o2)cc1)[C@@H]1CC[C@H](C(=O)N[C@H]2C[C@H](O)C2)C1 [Compound A77, 4-(1,3-benzoxazol-2-yl)-N-[(1R,3S)-3-[(trans-3-hydroxycyclobutyl)-carbamoyl]cyclopentyl]-N-methyl-benzamide] cannot be ordered by IC50: under 300 nM for the first, under 300 nM for the second.

Compared with CN(C(=O)c1ccc(-c2nc3ccccc3o2)cc1)[C@@H]1CC[C@H](C(=O)N[C@H]2C[C@@H](O)C2)C1 [Compound A78, 4-(1,3-benzoxazol-2-yl)-N-[(1R,3S)-3-[(cis-3-hydroxycyclobutyl)-carbamoyl]cyclopentyl]-N-methyl-benzamide], CN(C(=O)c1ccc(-c2nc3ccccc3o2)cc1)[C@@H]1CC[C@H](C(N)=O)C1 [Compound A86, 4-benzoxazol-2-yl-N-((1R,3S)-3-carbamoyl-cyclopentyl)-N-methyl-benzamide] is higher in IC50: under 300 nM for the first, 300 to 3000 nM for the second.

First: COc1cc(-c2nc3ccccc3o2)ccc1C(=O)N(C)[C@@H]1CC[C@H](C(=O)NC2(C)CC2)C1 [Compound A79, 4-(1,3-benzoxazol-2-yl)-2-methoxy-N-methyl-N-[(1R,3S)-3-[(1-methylcyclopropyl)carbamoyl]cyclopentyl]benzamide]
Second: COc1cc(C(=O)N(C)[C@@H]2CC[C@H](C(=O)NC3(C)CC3)C2)ccc1-c1nc2ccccc2o1 [Compound A85, 4-benzoxazol-2-yl-3-methoxy-N-methyl-N-[(1R,3S)-3-(1-methyl-cyclopropylcarbamoyl)-cyclopentyl]-benzamide]
The IC50 of the first is higher: 300 to 3000 nM for the first, under 300 nM for the second.

CN(C)C(=O)[C@H]1CC[C@@H](N(C)C(=O)c2ccc(-c3nc4ccccc4o3)cc2)C1 [Compound A82, 4-benzoxazol-2-yl-N-((1R,3S)-3-dimethylcarbamoyl-cyclopentyl)-N-methyl-benzamide] and CCNC(=O)[C@H]1CC[C@@H](N(C)C(=O)c2ccc(-c3cn4ccc(C#N)cc4n3)cc2)C1 [Compound A87, 4-(7-cyano-imidazo[1,2-a]pyridin-2-yl)-N-((1R,3S)-3-ethylcarbamoyl-cyclopentyl)-N-methyl-benzamide] fall in the same range of IC50: 300 to 3000 nM for the first, 300 to 3000 nM for the second.
